# System: primary human mesenchymal stem cells (hMSCs)
# Assay: Chondrogenesis induction in hMSCs (nodule count)
# Assay type: cell-based
# Settings: 144 h, hMSC chondrogenesis, 6 days; for Emax: relative to TGF-β3 (10 ng/mL) positive control, read-out: Max. Activity as % TGF-β3 activity; for EC50: concentration required to induce 50% of TGF-β3 level, read-out: Conc. (nM) of 50% TGF-β3 activity
# Description: Representative compounds were screened using primary human mesenchymal stem cells (hMSCs) to determine their ability to induce chondrogenesis (process by which cartilage is developed).
# Primary human mesenchymal stem cells (hMSCs) were purchased from Lonza (Walkersville, Md.) and expanded in Mesenchymal Stem Cell Growth Media (Lonza). Cells between passage 3 and 6 were used for the experiments.
# Each compound was dissolved in DMSO as a 10 mM stock and used to prepare compound source plates. Serial dilution (1:3, 6-point dose-response curves from 2700 nM to 10 nM) and compound transfer was performed using the ECHO 550 (Labcyte, Sunnyvale, Calif.) into 96-well clear bottom assay plates (Greiner Bio-One) with appropriate DMSO backfill for a final DMSO concentration of 0.03%. hMSCs were plated at 20,000 cells/well in 250 μL/well Incomplete Chondrogenic Induction Medium (Lonza; DMEM, dexamethasone, ascorbate, insulin-transferrin-selenium [ITS supplement], gentamycin-amphotericin [GA-1000], sodium pyruvate, proline and L-glutamine). TGF-β3 (10 ng/mL) was used as a positive control for differentiation while negative control wells were treated with 75 nL DMSO for normalization and calculating EC50 values. Cells were incubated at 37° C. and 5% CO2 for 6 days. To image chondrogenic nodules, the cells were fixed using 4% formaldehyde (Electron Microscopy Sciences), and stained with 2 μg/mL Rhodamine B (Sigma-Aldrich) and 20 μM Nile Red (Sigma-Aldrich) [Johnson K., et. al, A Stem Cell-Based Approach to Cartilage Repair, Science, (2012), 336(6082), 717-721]. The nodules imaged (4 images per well at 4× magnification) by excitation at 531 nm and emission at 625 nm and quantified using the CellInsight CX5 (Thermo Scientific). Number of nodules in each well was normalized to the average of 3 DMSO treated wells on the same plate using Excel (Microsoft Inc.). The normalized averages (fold change over DMSO) of 3 replicate wells for each compound concentration were calculated. Due to solubility limitations of some of the compounds, curve fitting was incomplete leading to inaccurate EC50 determinations.
# Using TGF-β3 as a positive control, the concentration of representative compounds required to induce 50% levels of chondrogenesis is reported. In addition, the maximum activity of each compound and the respective dose that each compound reached maximum chondrogenesis activity is reported.
Compound,Emax [%],EC50 [nM]
"c1cncc(-c2cc3c(-c4cc5cccnc5[nH]4)n[nH]c3cn2)c1 [Compound 256, 5-(Pyridin-3-yl)-3-(1H-pyrrolo[2,3-b]pyridin-2-yl)-1H-pyrazolo[3,4-c]pyridine]",28,
"O=C(Nc1cncc(-c2cc3c(-c4cc5c(-c6cccnc6)ccnc5[nH]4)n[nH]c3cn2)c1)c1ccccc1 [Compound 95, N-(5-(3-(4-(Pyridin-3-yl)-1H-pyrrolo[2,3-b]pyridin-2-yl)-1H-pyrazolo[3,4-c]pyridin-5-yl)pyridin-3-yl)benzamide]",64,10
"CC(C)CC(=O)Nc1cncc(-c2cc3c(-c4cc5cccnc5[nH]4)n[nH]c3cn2)c1 [Compound 254, N-(5-(3-(1H-Pyrrolo[2,3-b]pyridin-2-yl)-1H-pyrazolo[3,4-c]pyridin-5-yl)pyridin-3-yl)-3-methylbutanamide]",40,
"CN1CCN(c2ccnc3[nH]c(-c4n[nH]c5cnc(-c6cncc(NC(=O)CC7CCNCC7)c6)cc45)cc23)CC1 [Compound 641, N-(5-(3-(4-(4-Methylpiperazin-1-yl)-1H-pyrrolo[2,3-b]pyridin-2-yl)-1H-pyrazolo[3,4-c]pyridin-5-yl)pyridin-3-yl)-2-(piperidin-4-yl)acetamide]",341,100
"c1cncc(-c2ccnc3[nH]c(-c4n[nH]c5cnc(-c6cncnc6)cc45)cc23)c1 [Compound 111, 3-(4-(Pyridin-3-yl)-1H-pyrrolo[2,3-b]pyridin-2-yl)-5-(pyrimidin-5-yl)-1H-pyrazolo[3,4-c]pyridine]",50,
"CCNCc1cncc(-c2cc3c(-c4cc5c(-c6ccccc6F)ccnc5[nH]4)n[nH]c3cn2)c1 [Compound 62, N-((5-(3-(4-(2-Fluorophenyl)-1H-pyrrolo[2,3-b]pyridin-2-yl)-1H-pyrazolo [3,4-c]pyridin-5-yl)pyridin-3-yl)methyl)ethanamine]",270,30
"CN(C)Cc1cncc(-c2cc3c(-c4cc5c(-c6ccncc6)ccnc5[nH]4)n[nH]c3cn2)c1 [Compound 125, N,N-Dimethyl-1-(5-(3-(4-(pyridin-4-yl)-1H-pyrrolo[2,3-b]pyridin-2-yl)-1H-pyrazolo[3,4-c]pyridin-5-yl)pyridin-3-yl)methanamine]",33,
"O=C(Nc1cncc(-c2cc3c(-c4cc5c(-c6cccc(F)c6)ccnc5[nH]4)n[nH]c3cn2)c1)C1CC1 [Compound 20, N-(5-(3-(4-(3-Fluorophenyl)-1H-pyrrolo[2,3-b]pyridin-2-yl)-1H-pyrazolo [3,4-c]pyridin-5-yl)pyridin-3-yl)cyclopropanecarboxamide]",22,
"CC(C)Nc1cncc(-c2cc3c(-c4cc5c(-c6cccnc6)ccnc5[nH]4)n[nH]c3cn2)c1 [Compound 96, N-Isopropyl-5-(3-(4-(pyridin-3-yl)-1H-pyrrolo[2,3-b]pyridin-2-yl)-1H-pyrazolo[3,4-c]pyridin-5-yl)pyridin-3-amine]",77,10
"c1cncc(-c2ccnc3[nH]c(-c4n[nH]c5cnc(-c6cncc(CN7CCCC7)c6)cc45)cc23)c1 [Compound 98, 3-(4-(Pyridin-3-yl)-1H-pyrrolo[2,3-b]pyridin-2-yl)-5-(5-(pyrrolidin-1-ylmethyl)pyridin-3-yl)-1H-pyrazolo[3,4-c]pyridine]",17,
"CN1CCN(c2ccnc3[nH]c(-c4n[nH]c5cnc(-c6cncc(CNCC7CCCC7)c6)cc45)cc23)CC1 [Compound 249, 1-Cyclopentyl-N-((5-(3-(4-(4-methylpiperazin-1-yl)-1H-pyrrolo[2,3-b]pyridin-2-yl)-1H-pyrazolo[3,4-c]pyridin-5-yl)pyridin-3-yl)methyl)methanamine]",150,300
"CCCCC(=O)Nc1cncc(-c2cc3c(-c4cc5c(-c6cccnc6)ccnc5[nH]4)n[nH]c3cn2)c1 [Compound 103, N-(5-(3-(4-(Pyridin-3-yl)-1H-pyrrolo[2,3-b]pyridin-2-yl)-1H-pyrazolo[3,4-c]pyridin-5-yl)pyridin-3-yl)pentanamide]",53,10
"CN1CCN(c2ccnc3[nH]c(-c4n[nH]c5cnc(-c6cncc(N(C)C)c6)cc45)cc23)CC1 [Compound 231, N,N-Dimethyl-5-(3-(4-(4-methylpiperazin-1-yl)-1H-pyrrolo[2,3-b]pyridin-2-yl)-1H-pyrazolo[3,4-c]pyridin-5-yl)pyridin-3-amine]",14,
"Fc1cccc(-c2ccnc3[nH]c(-c4n[nH]c5cnc(-c6cncnc6)cc45)cc23)c1 [Compound 27, 3-(4-(3-Fluorophenyl)-1H-pyrrolo[2,3-b]pyridin-2-yl)-5-(pyrimidin-5-yl)-1H-pyrazolo[3,4-c]pyridine]",41,
"O=C(Nc1cncc(-c2cc3c(-c4cc5cccnc5[nH]4)n[nH]c3cn2)c1)C1CC1 [Compound 272, N-(5-(3-(1H-Pyrrolo[2,3-b]pyridin-2-yl)-1H-pyrazolo[3,4-c]pyridin-5-yl)pyridin-3-yl)cyclopropanecarboxamide]",18,
"CCCC(=O)Nc1cncc(-c2cc3c(-c4cc5c(-c6cc(F)cc(NCCN(C)C)c6)ccnc5[nH]4)n[nH]c3cn2)c1 [Compound 465, N-(5-(3-(4-(3-((2-(Dimethylamino)ethyl)amino)-5-fluorophenyl)-1H-pyrrolo [2,3-b]pyridin-2-yl)-1H-pyrazolo[3,4-c]pyridin-5-yl)pyridin-3-yl)butyramide]",162,10
"CN(C)CCNc1cc(F)cc(-c2ccnc3[nH]c(-c4n[nH]c5cnc(-c6cncnc6)cc45)cc23)c1 [Compound 475, N^1-(3-Fluoro-5-(2-(5-(pyrimidin-5-yl)-1H-pyrazolo[3,4-c]pyridin-3-yl)-1H-pyrrolo[2,3-b]pyridin-4-yl)phenyl)-N^2,N^2-dimethylethane-1,2-diamine]",17,
"FC1(F)CCN(Cc2cncc(-c3cc4c(-c5cc6cccnc6[nH]5)n[nH]c4cn3)c2)C1 [Compound 278, 5-(5-((3,3-Difluoropyrrolidin-1-yl)methyl)pyridin-3-yl)-3-(1H-pyrrolo[2,3-b]pyridin-2-yl)-1H-pyrazolo[3,4-c]pyridine]",45,
"Nc1cncc(-c2cc3c(-c4cc5c(-c6ccccc6F)ccnc5[nH]4)n[nH]c3cn2)c1 [Compound 59, 5-(3-(4-(2-Fluorophenyl)-1H-pyrrolo[2,3-b]pyridin-2-yl)-1H-pyrazolo[3,4-c]pyridin-5-yl)pyridin-3-amine]",32,
"Fc1cccc(-c2ccnc3[nH]c(-c4n[nH]c5cnc(-c6cncc(CN7CCCC7)c6)cc45)cc23)c1 [Compound 14, 3-(4-(3-Fluorophenyl)-1H-pyrrolo[2,3-b]pyridin-2-yl)-5-(5-(pyrrolidin-1-ylmethyl)pyridin-3-yl)-1H-pyrazolo[3,4-c]pyridine]",68,100
"CC(C)(C)C(=O)Nc1cncc(-c2cc3c(-c4cc5c(-c6cccc(F)c6)ccnc5[nH]4)n[nH]c3cn2)c1 [Compound 8, N-(5-(3-(4-(3-Fluorophenyl)-1H-pyrrolo[2,3-b]pyridin-2-yl)-1H-pyrazolo [3,4-c]pyridin-5-yl)pyridin-3-yl)pivalamide]",114,10
"CN1CCN(c2ccnc3[nH]c(-c4n[nH]c5cnc(-c6cn[nH]c6)cc45)cc23)CC1 [Compound 635, 3-(4-(4-Methylpiperazin-1-yl)-1H-pyrrolo[2,3-b]pyridin-2-yl)-5-(1H-pyrazol-4-yl)-1H-pyrazolo[3,4-c]pyridine]",63,10
"CCNCc1cncc(-c2cc3c(-c4cc5c(-c6cccnc6)ccnc5[nH]4)n[nH]c3cn2)c1 [Compound 90, N-((5-(3-(4-(Pyridin-3-yl)-1H-pyrrolo[2,3-b]pyridin-2-yl)-1H-pyrazolo[3,4-c]pyridin-5-yl)pyridin-3-yl)methyl)ethanamine]",49,

# Source: US10285982B2, “3-(1H-pyrrolo[2,3-B]pyridin-2-yl)-1H-pyrazolo[3,4-C]pyridines and therapeutic uses thereof” (Samumed, LLC, priority 2015, dated 2019)
